Two compounds from ChEMBL document CHEMBL5154932, “Discovery of 1,6-Naphthyridin-2(1H)-one Derivatives as Novel, Potent, and Selective FGFR4 Inhibitors for the Treatment of Hepatocellular Carcinoma” (J Med Chem, 2022) can be followed below.

Series [1] can be described thus: in vitro. Particulars: cynomolgus monkey, plasma.
For series [2] the following is noted: rat, in vivo, iv, 1 mg/kg.
The nature of series [3]: in vitro. Particulars: human, plasma.
Series [4] can be described thus: in vitro. Particulars: mouse, plasma.
A short description of series [5]: in vivo. The following applies: Sprague-Dawley, rat, po, 10 mg/kg.
Series [6] is described as follows: in vitro. The following applies: mouse, liver microsomes. (In general: Liver microsomes are a subcellular fraction often used to study metabolism.)
Series [7] in a line: in vitro. The following applies: human, liver microsomes.
The conditions of series [8]: rat, in vivo, po, 10 mg/kg.
The conditions of series [9]: rat, in vivo, iv, 1 mg/kg. The source holds these as a separate data set.
The conditions of series [10]: rat, in vivo, iv, 1 mg/kg. The source holds these as a separate data set.
The conditions of series [11]: rat, in vivo, po, 10 mg/kg. The source holds these as a separate data set.
For series [12] the following is noted: rat, in vivo, po, 10 mg/kg. The source holds these as a separate data set.
Series [13] in a line: in vivo. Particulars: Sprague-Dawley, rat, po, 10 mg/kg. This is another data set of the same source.
Series [14] can be described thus: in vitro. Particulars: rat, plasma.
For series [15] the following is noted: rat, in vivo, iv, 1 mg/kg. The source holds these as a separate data set.
For series [16] the following is noted: rat, in vivo, po, 10 mg/kg. This is another data set of the same source.
The conditions of series [17]: rat, in vivo, iv, 1 mg/kg. The source holds these as a separate data set.
Series [18] can be described thus: in vitro. Particulars: beagle, dog, plasma.
The conditions of series [19]: rat, in vivo, iv, 1 mg/kg. This is another data set of the same source.
A short description of series [20]: in vivo. Particulars: Sprague-Dawley, rat, po, 10 mg/kg. The source holds these as a separate data set.
The nature of series [21]: in vitro. The following applies: cynomolgus monkey, liver microsomes.
Series [22] can be described thus: in vivo. The following applies: Sprague-Dawley, rat, po, 10 mg/kg. This is another data set of the same source.
Series [23] can be described thus: in vitro. The following applies: beagle, dog, liver microsomes.
Series [24] is described as follows: in vitro. The following applies: rat, liver microsomes.
The nature of series [25]: in vivo. The following applies: Sprague-Dawley, rat, po, 10 mg/kg. This is another data set of the same source.
Series [26] can be described thus: in vivo. Particulars: Sprague-Dawley, rat, po, 10 mg/kg. The source holds these as a separate data set.

Usually half-life stands for the time in which the quantity being followed falls by half. What is called bioavailability is the share of a dose that reaches the circulation, judged against a reference dose that is usually intravenous. Lower therefore signals poor availability. Broadly, the Cmax is the highest concentration seen after dosing. As usually defined, the Tmax is the time at which the peak concentration occurs. In general, MRT last refers to the average time that molecules of a dose stay in the body. What is called Vd is the apparent volume that relates the amount in the body to the concentration in plasma or blood. Higher therefore signals extensive tissue distribution. For the compound `C=CC(=O)N[C@H]1CCOC[C@H]1Nc1ncc2cc(-c3c(Cl)c(OC)cc(OC)c3Cl)ccc2n1` [FISOGATINIB], the half-life was greater than 4.82 h in [1]; greater than 4.82 h in [3]; greater than 4.82 h in series [4]; 0.333 h in series [6]; 0.42 h in series [7]; greater than 4.82 h in series [14]. Further, the half-life in series [18] was greater than 4.82 h. Moreover, the “MRT(t)” value in series [2] was 1 h. Further, the bioavailability in series [5] was 79.7%. Moreover, the results for the Cmax in series [8] and in series [10] were 2570.9 ng/mL and 1161 ng/mL, respectively. Also, the CL in series [9] amounted to 17 mL/min/kg. Moreover, the t1/2 in series [11] worked out at 1.2 min; in series [19], 1 min. For the same compound, in [12], the Tmax stood at 0.5 h. The same compound had an MRT last in [13] of 1.8 h. This compound yielded a Vd in series [15] of 1.4 L/kg. In addition, the figures for the AUCt in series [16] and in series [17] were 8155.2 ng·h/mL and 1023.1 ng·h/mL, respectively.

The AUC(0-t) is exposure summed from dosing to a finite time, without extrapolation to infinity. Low values mean less exposure, high ones more exposure. In series [20], `CC#CC(=O)Nc1cc(-c2cc3c(cn2)cc(-c2c(Cl)c(OC)cc(OC)c2Cl)c(=O)n3CC)c(OC)cc1N1C[C@H]2C[C@@H]1CO2` yielded an AUC(0-t) of 14400 ng·h/mL. Also, the half-life in series [1] is greater than 4.82 h; in series [21] it was 0.222 h; in series [22], 2 min; in [3] it was 4.77 h; in series [4] it was 3.33 h; in series [6], 0.735 h. Besides, the half-life in series [7] is 0.668 h; in series [23], 0.455 h; in [14] it was greater than 4.82 h; in [24] it was 1.22 h; in [18], greater than 4.82 h. Also, in series [2], the “MRT(t)” value came out at 1.8 h. The bioavailability in [5] is 55.4%. Also, in [9], the CL came out at 6.7 mL/min/kg. Besides, the Cmax in series [10] was 1836.2 ng/mL; in series [25], 3650 ng/mL. In addition, in series [13], the MRT last was 2.4 h. In series [15], this compound came in with a Vd of 1.1 L/kg. Besides, the AUCt in series [17] stood at 2609.6 ng·h/mL. Further, in [26], the Tmax came to 1.4 h. This compound came in with a t1/2 in series [19] of 2 min.
